The NIST ThermoML archive (doi:10.1021/acs.jced.8b00176)

Assay: xn = mol fraction of the nth substance listed
Conditions: 100 kPa, Liquid; for viscosity: Falling or rolling sphere viscometry; for speed of sound: Frequency=3 MHz, Single path-length method; for mass density: Vibrating tube method

CC#N [acetonitrile] + CN(C)C=O
Conditions | mass density [kg/m3] | speed of sound [m/s] | viscosity [mPa·s]
298.15 K, x2 = 0 | 776.714 | 1278.5 | 0.34
298.15 K, x2 = 0.0989 | 802.565 | 1302.5 | 0.4
298.15 K, x2 = 0.1916 | 826.376 | 1322 | 0.44
298.15 K, x2 = 0.2925 | 844.614 | 1339.6 | 0.48
298.15 K, x2 = 0.3932 | 865.725 | 1361.6 | 0.54
298.15 K, x2 = 0.5029 | 880.889 | 1377.5 | 0.61
298.15 K, x2 = 0.6002 | 895.421 | 1395.9 | 0.65
298.15 K, x2 = 0.6931 | 907.546 | 1411.4 | 0.69
298.15 K, x2 = 0.7926 | 922.026 | 1429.2 | 0.75
298.15 K, x2 = 0.8996 | 932.676 | 1442.8 | 0.79
303.15 K, x2 = 0 | 771.289 | 1258.4 | 0.32
303.15 K, x2 = 0.0989 | 797.299 | 1282.7 | 0.39
303.15 K, x2 = 0.1916 | 821.229 | 1302.3 | 0.42
303.15 K, x2 = 0.2925 | 839.435 | 1320.1 | 0.46
303.15 K, x2 = 0.3932 | 860.639 | 1342.2 | 0.51
303.15 K, x2 = 0.5029 | 875.938 | 1358.1 | 0.57
303.15 K, x2 = 0.6002 | 890.518 | 1376.6 | 0.61
303.15 K, x2 = 0.6931 | 902.756 | 1392 | 0.65
303.15 K, x2 = 0.7926 | 917.22 | 1409.9 | 0.7
303.15 K, x2 = 0.8996 | 927.901 | 1423.3 | 0.75
308.15 K, x2 = 0 | 765.833 | 1238.2 | 0.31
308.15 K, x2 = 0.0989 | 792.024 | 1262.9 | 0.37
308.15 K, x2 = 0.1916 | 816.008 | 1282.5 | 0.4
308.15 K, x2 = 0.2925 | 834.219 | 1300.5 | 0.44
308.15 K, x2 = 0.3932 | 855.56 | 1322.6 | 0.49
308.15 K, x2 = 0.5029 | 870.924 | 1338.6 | 0.54
308.15 K, x2 = 0.6002 | 885.607 | 1357.2 | 0.58
308.15 K, x2 = 0.6931 | 897.887 | 1372.6 | 0.61
308.15 K, x2 = 0.7926 | 912.402 | 1390.5 | 0.66
308.15 K, x2 = 0.8996 | 923.153 | 1404 | 0.71
313.15 K, x2 = 0 | 760.339 | 1218 | 0.3
313.15 K, x2 = 0.0989 | 786.729 | 1243 | 0.35
313.15 K, x2 = 0.1916 | 810.757 | 1262.8 | 0.39
313.15 K, x2 = 0.2925 | 829.087 | 1280.9 | 0.42
313.15 K, x2 = 0.3932 | 850.487 | 1303.2 | 0.46
313.15 K, x2 = 0.5029 | 865.854 | 1319.2 | 0.51
313.15 K, x2 = 0.6002 | 880.698 | 1337.9 | 0.55
313.15 K, x2 = 0.6931 | 893.049 | 1353.3 | 0.58
313.15 K, x2 = 0.7926 | 907.663 | 1371.3 | 0.63
313.15 K, x2 = 0.8996 | 918.366 | 1384.7 | 0.69
318.15 K, x2 = 0 | 754.815 | 1197.9 | 0.29
318.15 K, x2 = 0.0989 | 781.363 | 1223.3 | 0.33
318.15 K, x2 = 0.1916 | 805.527 | 1243.1 | 0.37
318.15 K, x2 = 0.2925 | 823.852 | 1261.3 | 0.4
318.15 K, x2 = 0.3932 | 845.354 | 1283.7 | 0.44
318.15 K, x2 = 0.5029 | 860.76 | 1299.9 | 0.49
318.15 K, x2 = 0.6002 | 875.703 | 1318.6 | 0.52
318.15 K, x2 = 0.6931 | 888.143 | 1334 | 0.55
318.15 K, x2 = 0.7926 | 902.79 | 1352.1 | 0.59
318.15 K, x2 = 0.8996 | 913.57 | 1365.5 | 0.63
323.15 K, x2 = 0 | 749.253 | 1177.8 | 0.28
323.15 K, x2 = 0.0989 | 776.028 | 1203.5 | 0.32
323.15 K, x2 = 0.1916 | 800.222 | 1223.4 | 0.35
323.15 K, x2 = 0.2925 | 818.614 | 1241.9 | 0.38
323.15 K, x2 = 0.3932 | 840.213 | 1264.4 | 0.42
323.15 K, x2 = 0.5029 | 855.738 | 1280.6 | 0.46
323.15 K, x2 = 0.6002 | 870.738 | 1299.4 | 0.5
323.15 K, x2 = 0.6931 | 883.209 | 1314.8 | 0.53
323.15 K, x2 = 0.7926 | 897.991 | 1332.9 | 0.56
323.15 K, x2 = 0.8996 | 908.741 | 1346.3 | 0.6
